Measurements published in US7405207B2, “Nebulizer formulations of dehydroepiandrosterone and methods of treating asthma or chronic obstructive pulmonary disease using compositions thereof” (Epigenesis Pharmaceuticals, Inc., priority 2002, dated 2008).
Values joined by “and” are separate entries in the source; they are usually repeats but may differ in a detail not shown here. Identical values can stand only once.

Assays:
Type in all cases: physicochemical
[1] = Stability of anhydrous DHEA-S and DHEA-S dihydrate with and without lactose (HPLC, DHEA formed)
Text: These conditions were used to stress the formulation in order to predict its long-term stability results.
The primary degradant is dehydroepiandrosterone or DHEA. […] The materials on accelerated storage become more cohesive with time as evidenced by clumping during sample weighing for chemical analysis. […] This is a considerable disadvantage since lactose is the most commonly used inhalation excipient for dry powder formulations. Continuing with the virtually anhydrous form would mean limiting formulations to neat powder or undertaking more comprehensive safety studies to use a novel excipient.

Solubility of DHEA-S = details: 20 mM Na+ (0.12% NaCl), Ksp of 1316 mM^2, 15° C.
Text: Inhalation of pure water can produce a cough stimulus.

[2] = Short-term solution stability; details: 7.5 mg/mL in 0.12% NaCl, room temperature
Procedure: Stability Studies. […] Aliquots of this solution are filled into clear glass vials and stored at room temperature (24-26° C.) and at 40° C. The samples are checked daily for DHEA-S content, DHEA content, and appearance. For each time point, duplicate samples are withdrawn and diluted from each vial.

Row | SMILES | water content ([1]; after accelerated storage, one week at 50° C.) [%] | water content ([1]; starting value) [%] | calculated DHEA-S concentration (solubility) (Solubility of DHEA-S) | solution stability [2]
1 | CC12CCC3C(CC=C4CC(OS(=O)(=O)[O-])CCC43C)C1CCC2=O.[Na+] (stereo not shown) [DHEA-S Dihydrate, dehydroepiandrosterone sodium sulfate dihydrate] | 8.66 | 8.8 | – | –
2 | C[C@]12CC[C@H](OS(=O)(=O)[O-])CC1=CC[C@@H]1[C@@H]2CC[C@]2(C)C(=O)CC[C@@H]12.[Na+] [DHEA-S, sodium dehydroepiandrostenone sulfate] | – | – | 27.5 mM and 10.7 mg/mL | stable for at least one day
